Data: US20230277533A1, “THERAPEUTIC COMBINATIONS COMPRISING UBIQUITIN-SPECIFIC-PROCESSING PROTEASE 1 (USP1) INHIBITORS AND POLY (ADP-RIBOSE) POLYMERASE (PARP) INHIBITORS” (KSQ Therapeutics, Inc., priority 2020, published 2023)
Like-named read-outs stand apart in the source and are kept apart here.

How the values were obtained:
Test in all cases: Colony formation (CFU) assay
Assay type in all cases: cell-based
KP3 = system: KP3
How it was run: (§1)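 Under a 14-day clonogenic protocol, media bearing USP1 inhibitor, niraparib or olaparib replaced the old at day 8. Colonies were fixed, stained with crystal violet and the dye quantified at 565 nm; values were fitted to a two-parameter Hill equation.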

SNUC4 = conditions: Homo sapiens, SNU-C4; SNUC4, colon
How it was run: as §1

OV56 = conditions: OV56, ovary
How it was run: as §1

HBCx17 = conditions: HBCx17, breast
How it was run: as §1

U251MG = conditions: Homo sapiens, U-251, nervous system
How it was run: as §1

HPAFII = conditions: Homo sapiens, HPAF-II, pancreas
How it was run: as §1

HEC1B = conditions: Homo sapiens, HEC-1B, uterus
How it was run: as §1

HCT15 = conditions: Homo sapiens, HCT-15; HCT15, colon
How it was run: as §1

SNU8 = conditions: SNU8, ovary
How it was run: as §1

COV504 = conditions: COV504, ovary
How it was run: as §1

HS934T = conditions: melanoma
How it was run: as §1

NCIH1573 = conditions: Homo sapiens, NCI-H1573; NCIH1573, lung
How it was run: as §1

MDAMB231 = conditions: Homo sapiens, MDA-MB-231; MDAMB231, breast
How it was run: as §1

SNU668 = conditions: SNU668, stomach
How it was run: as §1

BT474 = conditions: Homo sapiens, BT-474; BT474, breast
How it was run: as §1

HCC2108 = conditions: HCC2108, lung
How it was run: as §1

HCC1937 = conditions: Homo sapiens; HCC1937, breast
How it was run: as §1

SKOV3_BRCA1null = conditions: ovary
How it was run: as §1

HMC18 = conditions: HMC18, breast
How it was run: as §1

LUDLU1 = conditions: LUDLU-1; LUDLU1, lung
How it was run: as §1

NCIH1651 = conditions: Homo sapiens, NCI-H1651; NCIH1651, lung
How it was run: as §1

AN3CA = conditions: Homo sapiens, AN3-CA, uterus
How it was run: as §1

OVK18 = conditions: OVK18, ovary
How it was run: as §1

BICR6 = conditions: BICR6, head and neck
How it was run: as §1

SKMEL24 = conditions: Homo sapiens, SK-MEL-24; SKMEL24, skin
How it was run: as §1

HS695T = conditions: Homo sapiens, Hs 695T, skin
How it was run: as §1

FADU = conditions: Homo sapiens, head and neck
How it was run: as §1

HS739T = conditions: breast
How it was run: as §1

TE14 = conditions: TE14, esophagus
How it was run: as §1

A2058 = conditions: Homo sapiens; A2058, skin
How it was run: as §1

VMRCRCZ = conditions: kidney
How it was run: as §1

KYSE140 = conditions: Homo sapiens, KYSE-140; KYSE140, esophagus
How it was run: as §1

RT112 = conditions: Homo sapiens, RT-112; RT112, bladder
How it was run: as §1

BICR78 = conditions: BICR78, head and neck
How it was run: as §1

HEC151 = conditions: HEC151, endometrial
How it was run: as §1

SUM149PT = conditions: Homo sapiens, breast
How it was run: as §1

UBLC1 = conditions: UBLC1, bladder
How it was run: as §1

SN12C = conditions: Homo sapiens, kidney
How it was run: as §1

Row | Compound | IC50 (SNUC4) | IC50 (OV56) | IC50 (HBCx17) | IC50 (U251MG) | IC50 (HPAFII) | IC50 (HEC1B) | IC50 (HCT15) | IC50 (SNU8) | IC50 (COV504) | IC50 (HS934T) | IC50 (NCIH1573) | IC50 (MDAMB231) | IC50 (SNU668) | IC50 (BT474) | IC50 (HCC2108) | IC50 (HCC1937) | IC50 (SKOV3_BRCA1null) | IC50 (HMC18) | IC50 (LUDLU1) | IC50 (NCIH1651) | other results
1 | NC(=O)c1cccc2cn(-c3ccc([C@@H]4CCCNC4)cc3)nc12 [Niraparib, niraparib, reference compound] | > 300 nM | > 300 nM | 13.8 nM | > 300 nM | > 300 nM | > 300 nM | > 300 nM | > 300 nM | 4.17 nM | > 300 nM | 15.2 nM | > 300 nM | > 300 nM | > 300 nM | 95.5 nM | 244 nM | 262 nM | > 300 nM | > 300 nM | 32.4 nM | IC50 (KP3; KP3, pancreas, read-out: IC50): > 300 nM; IC50 (AN3CA): 101 nM; IC50 (OVK18): > 300 nM; IC50 (BICR6): 149 nM; IC50 (SKMEL24): > 300 nM; IC50 (HS695T): 36.9 nM; IC50 (FADU): > 300 nM; IC50 (HS739T): > 300 nM; IC50 (TE14): > 300 nM; IC50 (A2058): 58.4 nM; IC50 (VMRCRCZ): > 300 nM; IC50 (KYSE140): > 300 nM; IC50 (RT112): > 300 nM; IC50 (BICR78): > 300 nM; IC50 (HEC151): > 300 nM; IC50 (SUM149PT): 135 nM; IC50 (UBLC1): > 300 nM; IC50 (SN12C): > 300 nM
2 | COc1ncnc(C2CC2)c1-c1ncc2cnn(Cc3ccc(-c4nc(C(F)(F)F)cn4C)cc3)c2n1 [Formula II, 6-(4-cyclopropyl-6-methoxypyrimidin-5-yl)-1-(4-(1-methyl-4-(trifluoromethyl)-1H-imidazol-2-yl)benzyl)-1H-pyrazolo[3,4-d]pyrimidine] | > 300 nM | > 300 nM | > 300 nM | > 300 nM | > 300 nM | > 300 nM | > 300 nM | > 300 nM | 6.63 nM | > 300 nM | 227 nM | > 300 nM | > 300 nM | > 300 nM | > 300 nM | > 300 nM | > 300 nM | > 300 nM | > 300 nM | 85.7 nM | IC50 (KP3): > 300 nM; IC50 (AN3CA): > 300 nM; IC50 (OVK18): > 300 nM; IC50 (BICR6): > 300 nM; IC50 (SKMEL24): > 300 nM; IC50 (HS695T): > 300 nM; IC50 (FADU): > 300 nM; IC50 (HS739T): > 300 nM; IC50 (TE14): > 300 nM; IC50 (A2058): > 300 nM; IC50 (VMRCRCZ): > 300 nM; IC50 (KYSE140): > 300 nM; IC50 (RT112): > 300 nM; IC50 (BICR78): > 300 nM; IC50 (HEC151): > 300 nM; IC50 (SUM149PT): > 300 nM; IC50 (UBLC1): > 300 nM; IC50 (SN12C): 64.7 nM
